Measured values as given in ChEMBL document CHEMBL6078684, “Discovery of a Novel Non-invasive AR PROTAC Degrader for the Topical Treatment of Androgenetic Alopecia” (J Med Chem, 2024).
Activity calls are given as the source filed them. The rule behind the calls is not given here.

Legend:
[1] = Ratio of drug concentration in male ICR mouse skin to spleen at 4 mg/ml, TOP measured after 4 hrs by LC-MS/MS analysis; format: ADME, tissue-based; conditions: in vivo, topical_or_ocular
[2] = target: T1, Protein cereblon/Androgen receptor (Homo sapiens, UniProt P10275+Q96SW2); experiment: PROTAC activity at CRBN/AR in human dermal papilla cells assessed as induction of AR degradation at 500 nM in presence of MG132 by Western blot analysis; format: cell-based; conditions: Human dermal papilla cell
Target sequence in this assay (P10275 whole entry, looked up): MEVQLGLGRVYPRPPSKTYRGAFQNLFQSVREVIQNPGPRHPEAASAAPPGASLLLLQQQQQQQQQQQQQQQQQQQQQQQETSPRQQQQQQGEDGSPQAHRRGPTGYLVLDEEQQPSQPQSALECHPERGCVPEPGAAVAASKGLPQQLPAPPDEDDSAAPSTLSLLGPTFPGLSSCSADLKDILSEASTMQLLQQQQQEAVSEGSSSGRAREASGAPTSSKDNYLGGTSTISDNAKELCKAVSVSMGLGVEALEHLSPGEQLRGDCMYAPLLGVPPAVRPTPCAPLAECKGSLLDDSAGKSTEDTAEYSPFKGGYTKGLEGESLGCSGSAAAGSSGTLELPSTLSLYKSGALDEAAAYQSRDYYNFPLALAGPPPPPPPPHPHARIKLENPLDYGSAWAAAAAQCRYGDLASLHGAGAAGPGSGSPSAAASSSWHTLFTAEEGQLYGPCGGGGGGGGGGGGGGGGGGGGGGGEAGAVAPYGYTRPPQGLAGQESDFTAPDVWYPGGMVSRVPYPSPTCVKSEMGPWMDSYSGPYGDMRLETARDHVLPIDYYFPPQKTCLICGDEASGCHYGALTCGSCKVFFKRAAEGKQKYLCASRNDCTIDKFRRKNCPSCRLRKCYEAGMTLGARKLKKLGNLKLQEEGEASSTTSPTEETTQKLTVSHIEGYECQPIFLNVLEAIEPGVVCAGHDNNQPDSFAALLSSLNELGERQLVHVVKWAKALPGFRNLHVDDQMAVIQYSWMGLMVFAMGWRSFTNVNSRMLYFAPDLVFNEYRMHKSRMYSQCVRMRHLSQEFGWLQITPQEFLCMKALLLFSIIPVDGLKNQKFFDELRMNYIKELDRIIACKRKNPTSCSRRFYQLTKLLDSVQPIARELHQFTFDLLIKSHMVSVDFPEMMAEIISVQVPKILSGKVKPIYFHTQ
Target sequence in this assay (Q96SW2 whole entry, looked up): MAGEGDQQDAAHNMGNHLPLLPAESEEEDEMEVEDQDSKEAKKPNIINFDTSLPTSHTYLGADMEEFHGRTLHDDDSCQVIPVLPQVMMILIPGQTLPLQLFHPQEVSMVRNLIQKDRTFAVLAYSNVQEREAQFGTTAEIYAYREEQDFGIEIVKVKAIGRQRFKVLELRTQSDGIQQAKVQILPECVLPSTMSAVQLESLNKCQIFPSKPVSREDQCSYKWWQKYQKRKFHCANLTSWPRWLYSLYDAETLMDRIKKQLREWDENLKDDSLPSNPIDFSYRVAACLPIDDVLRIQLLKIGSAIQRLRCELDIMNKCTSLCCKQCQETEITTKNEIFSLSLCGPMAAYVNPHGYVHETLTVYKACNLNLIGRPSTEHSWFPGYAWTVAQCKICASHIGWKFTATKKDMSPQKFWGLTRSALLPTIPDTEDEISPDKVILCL

[3] = target: T1, Protein cereblon/Androgen receptor; experiment: PROTAC activity at CRBN/AR in human dermal papilla cells assessed as inhibition of TGF-beta1 release by measuring fold change in TGF-beta1 concentration at 1 uM preincubated with testosterone for 24 hrs followed by compound addition and measured after 48 hrs by ELISA relative to enzalutamide; format: cell-based; conditions: Human dermal papilla cell
Target sequence in this assay (P10275 whole entry, looked up): as the sequence (P10275 whole entry, looked up) above
Target sequence in this assay (Q96SW2 whole entry, looked up): as the sequence (Q96SW2 whole entry, looked up) above

[4] = Ratio of drug concentration in male ICR mouse skin to lungs at 4 mg/ml, TOP measured after 2 hrs by LC-MS/MS analysis; format: ADME, tissue-based, Skin/Lung; conditions: in vivo, topical_or_ocular
Mus musculus [5] = experiment: Hair regeneration efficacy in testosterone induced male C57BL/6 mouse androgenetic alopecia model assessed as entry of hair follicles to anagen phase by measuring high density of enlarged hair bulbs in subcutaneous tissue at 0.4 %, TOP administered once daily for 14 days with co-administration of 0.2% testosterone for 28 days by H and E staining based analysis; format: functional, organism-based; conditions: time 14.0 day
[6] = Ratio of drug concentration in male ICR mouse skin to lungs at 4 mg/ml, TOP measured after 0.5 hrs by LC-MS/MS analysis; format: ADME, tissue-based, Skin/Lung; conditions: in vivo, topical_or_ocular
[7] = Ratio of drug concentration in male ICR mouse skin to lungs at 4 mg/ml, TOP measured after 4 hrs by LC-MS/MS analysis; format: ADME, tissue-based, Skin/Lung; conditions: in vivo, topical_or_ocular
[8] = Ratio of drug concentration in male ICR mouse skin to spleen at 4 mg/ml, TOP measured after 0.5 hrs by LC-MS/MS analysis; format: ADME, tissue-based; conditions: in vivo, topical_or_ocular
Mus musculus [9] = experiment: Hair regeneration efficacy in testosterone induced male C57BL/6 mouse androgenetic alopecia model at 0.1 to 0.4 %, TOP administered once daily for 14 days and measured after 21 days with co-administration of 0.2% testosterone for 28 days by photographic analysis; format: functional, organism-based; conditions: dose 0.1-0.4 %, time 14.0 day
[10] = Ratio of drug concentration in male ICR mouse skin to kidney at 4 mg/ml, TOP measured after 0.5 hrs by LC-MS/MS analysis; format: ADME, tissue-based; conditions: in vivo, topical_or_ocular
[11] = target: T1, Protein cereblon/Androgen receptor; experiment: PROTAC activity at CRBN/AR in human dermal papilla cell assessed as induction of AR degradation measured after 24 to 72 hrs by Western blot analysis; format: cell-based
Target sequence in this assay (P10275 whole entry): as the sequence (P10275 whole entry, looked up) above
Target sequence in this assay (Q96SW2 whole entry): as the sequence (Q96SW2 whole entry, looked up) above

[12] = AUC (0 to t) in male ICR mouse plasma at 4 mg/ml, TOP measured after 12 hrs by LC-MS/MS analysis; format: ADME, cell-free; conditions: topical or ocular
[13] = target: Protein cereblon/Androgen receptor (Mus musculus) (UniProt P19091+Q8C7D2); experiment: In vivo PROTAC activity at CRBN/AR in testosterone induced male C57BL/6 mouse androgenetic alopecia model assessed as decrease in AR protein level in skin at 0.4 % TOP administered once daily for 14 days with co-administration of 0.2% testosterone for 28 days by Western blot analysis relative to control; format: functional, organism-based; design: scale not given: the % may be the effect or the level left; conditions: time 14.0 day
[14] = target: T1, Protein cereblon/Androgen receptor; experiment: PROTAC activity at CRBN/AR in human dermal papilla cells assessed as inhibition of TGF-beta1 release by measuring TGF-beta1 concentration at 1 uM preincubated with testosterone for 24 hrs followed by compound addition and measured after 48 hrs by ELISA; format: cell-based; conditions: Human dermal papilla cell
Target sequence in this assay (P10275 whole entry, looked up): as the sequence (P10275 whole entry, looked up) above
Target sequence in this assay (Q96SW2 whole entry, looked up): as the sequence (Q96SW2 whole entry, looked up) above

[15] = target: T1, Protein cereblon/Androgen receptor; experiment: PROTAC activity at CRBN/AR in human dermal papilla cells assessed as inhibition of TGF-beta1 release by measuring TGF-beta1 concentration at 500 nM preincubated with testosterone for 24 hrs followed by compound addition and measured after 48 hrs by ELISA; format: cell-based; conditions: Human dermal papilla cell
Target sequence in this assay (P10275 whole entry, looked up): as the sequence (P10275 whole entry, looked up) above
Target sequence in this assay (Q96SW2 whole entry, looked up): as the sequence (Q96SW2 whole entry, looked up) above

[16] = Ratio of drug concentration in male ICR mouse skin to heart at 4 mg/ml, TOP measured after 4 hrs by LC-MS/MS analysis; format: ADME, tissue-based; conditions: in vivo, topical_or_ocular
Mus musculus [17] = experiment: Hair regeneration efficacy in testosterone induced male C57BL/6 mouse androgenetic alopecia model assessed as increase in hair density at 0.4 %, TOP administered once daily for 14 days with co-administration of 0.2% testosterone and measured after 28 days by trichoscope photographic analysis; format: functional, organism-based; conditions: time 28.0 day
[18] = Drug uptake in male ICR mouse spleen at 4 mg/ml, TOP measured after 12 hrs by LC-MS/MS analysis; format: ADME, tissue-based; conditions: in vivo, topical_or_ocular
[19] = Ratio of drug concentration in male ICR mouse skin to plasma at 4 mg/ml, TOP measured after 4 hrs by LC-MS/MS analysis; format: ADME, cell-free; conditions: other tissue, topical_or_ocular
Mus musculus [20] = experiment: (§1) Hair regeneration efficacy in testosterone induced male C57BL/6 mouse androgenetic alopecia model assessed as increase in hair diameter at 0.1 %, TOP administered once daily for 14 days with co-administration of 0.2% testosterone and measured after 28 days by SEM analysis; format: functional, organism-based; conditions: time 28.0 day
[21] = Ratio of drug concentration in male ICR mouse skin to kidney at 4 mg/ml, TOP measured after 2 hrs by LC-MS/MS analysis; format: ADME, tissue-based; conditions: in vivo, topical_or_ocular
[22] = target: T1, Protein cereblon/Androgen receptor; experiment: PROTAC activity at CRBN/AR in human dermal papilla cells assessed as induction of AR degradation at 500 nM in presence of pomalidomide by Western blot analysis; format: cell-based; conditions: Human dermal papilla cell
Target sequence in this assay (P10275 whole entry, looked up): as the sequence (P10275 whole entry, looked up) above
Target sequence in this assay (Q96SW2 whole entry, looked up): as the sequence (Q96SW2 whole entry, looked up) above

Mus musculus [23] = experiment: as §1, with “Ki67 expression in skin” for “hair diameter”, “%” for “%,”, “for” for “and measured after”, “DAPI staining based immunofluorescence” for “SEM”; format: functional, organism-based; conditions: time 14.0 day
Mus musculus [24] = experiment: Hair regeneration efficacy in testosterone induced male C57BL/6 mouse androgenetic alopecia model assessed as earlier pigmentation at 0.1 to 0.4 %, TOP administered once daily for 14 days and measured after 21 days with co-administration of 0.2% testosterone for 28 days by photographic analysis; format: functional, organism-based; conditions: dose 0.1-0.4 %, time 14.0 day
[25] = Ratio of drug concentration in male ICR mouse skin to kidney at 4 mg/ml, TOP measured after 0.25 hrs by LC-MS/MS analysis; format: ADME, tissue-based; conditions: in vivo, topical_or_ocular
[26] = Ratio of drug concentration in male ICR mouse skin to plasma at 4 mg/ml, TOP measured after 0.25 hrs by LC-MS/MS analysis; format: ADME, cell-free; conditions: topical or ocular
[27] = Ratio of drug concentration in male ICR mouse skin to heart at 4 mg/ml, TOP measured after 2 hrs by LC-MS/MS analysis; format: ADME, tissue-based; conditions: in vivo, topical_or_ocular
[28] = Ratio of drug concentration in male ICR mouse skin to plasma at 4 mg/ml, TOP measured after 0.5 hrs by LC-MS/MS analysis; format: ADME, cell-free; conditions: topical or ocular
[29] = Ratio of drug concentration in male ICR mouse skin to spleen at 4 mg/ml, TOP measured after 1 hrs by LC-MS/MS analysis; format: ADME, tissue-based; conditions: in vivo, topical_or_ocular
[30] = Ratio of drug concentration in male ICR mouse skin to liver at 4 mg/ml, TOP measured after 12 hrs by LC-MS/MS analysis; format: ADME, tissue-based; conditions: in vivo, topical_or_ocular
[31] = Ratio of drug concentration in male ICR mouse skin to liver at 4 mg/ml, TOP measured after 4 hrs by LC-MS/MS analysis; format: ADME, tissue-based; conditions: in vivo, topical_or_ocular
[32] = target: T1, Protein cereblon/Androgen receptor; experiment: PROTAC activity at CRBN/AR in human dermal papilla cells assessed as increase in beta-catenin protein level at 250 to 1000 nM preincubated with testosterone for 24 hrs followed by compound addition and measured after 48 hrs by Western blot analysis; format: cell-based; conditions: Human dermal papilla cell, dose 250-1000 nM
Target sequence in this assay (P10275 whole entry, looked up): as the sequence (P10275 whole entry, looked up) above
Target sequence in this assay (Q96SW2 whole entry, looked up): as the sequence (Q96SW2 whole entry, looked up) above

[33] = Drug uptake in male ICR mouse lung at 4 mg/ml, TOP measured after 12 hrs by LC-MS/MS analysis; format: ADME, tissue-based; conditions: in vivo, topical_or_ocular
[34] = Ratio of drug concentration in male ICR mouse skin to heart at 4 mg/ml, TOP measured after 12 hrs by LC-MS/MS analysis; format: ADME, tissue-based; conditions: in vivo, topical_or_ocular

Sequence of Protein cereblon/Androgen receptor (Mus musculus) (P19091 whole entry, looked up): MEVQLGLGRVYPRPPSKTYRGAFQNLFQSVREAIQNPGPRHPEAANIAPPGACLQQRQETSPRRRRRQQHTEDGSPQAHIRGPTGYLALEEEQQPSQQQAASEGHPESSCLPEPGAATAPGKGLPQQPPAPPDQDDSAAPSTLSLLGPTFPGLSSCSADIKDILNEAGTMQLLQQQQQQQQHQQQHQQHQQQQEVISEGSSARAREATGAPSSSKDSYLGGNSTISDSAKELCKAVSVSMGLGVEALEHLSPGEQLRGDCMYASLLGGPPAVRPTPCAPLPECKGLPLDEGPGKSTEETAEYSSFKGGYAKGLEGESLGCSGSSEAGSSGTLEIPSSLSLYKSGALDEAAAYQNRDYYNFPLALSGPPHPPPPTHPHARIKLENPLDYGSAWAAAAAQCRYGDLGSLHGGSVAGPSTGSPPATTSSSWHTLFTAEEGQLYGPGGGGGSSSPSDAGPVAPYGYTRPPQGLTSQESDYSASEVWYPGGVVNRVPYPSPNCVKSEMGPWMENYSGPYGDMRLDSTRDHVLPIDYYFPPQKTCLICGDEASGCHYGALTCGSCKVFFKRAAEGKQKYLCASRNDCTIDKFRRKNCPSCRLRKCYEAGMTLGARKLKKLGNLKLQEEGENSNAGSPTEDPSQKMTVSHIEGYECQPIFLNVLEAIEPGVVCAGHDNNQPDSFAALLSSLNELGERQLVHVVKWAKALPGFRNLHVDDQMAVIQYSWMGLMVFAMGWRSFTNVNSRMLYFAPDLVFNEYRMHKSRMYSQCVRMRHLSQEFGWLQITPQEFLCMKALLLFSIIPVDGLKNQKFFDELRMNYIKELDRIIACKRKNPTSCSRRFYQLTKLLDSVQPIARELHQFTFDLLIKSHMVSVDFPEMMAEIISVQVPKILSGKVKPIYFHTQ
Sequence of Protein cereblon/Androgen receptor (Mus musculus) (Q8C7D2 whole entry, looked up): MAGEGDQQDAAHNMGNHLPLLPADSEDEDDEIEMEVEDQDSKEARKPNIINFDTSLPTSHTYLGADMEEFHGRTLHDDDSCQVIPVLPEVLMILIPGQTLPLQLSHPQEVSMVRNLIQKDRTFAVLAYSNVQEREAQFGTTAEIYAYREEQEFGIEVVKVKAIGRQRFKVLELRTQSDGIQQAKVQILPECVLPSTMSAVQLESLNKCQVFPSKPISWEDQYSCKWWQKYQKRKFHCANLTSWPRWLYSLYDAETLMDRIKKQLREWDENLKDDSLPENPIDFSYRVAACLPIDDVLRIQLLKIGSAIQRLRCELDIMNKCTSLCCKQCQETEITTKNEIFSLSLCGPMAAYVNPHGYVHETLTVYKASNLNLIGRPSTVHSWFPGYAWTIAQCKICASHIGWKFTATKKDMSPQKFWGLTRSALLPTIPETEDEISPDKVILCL

Ratio [1]: 635.83
fold change (FC) [3]: 0.62
Ratio [4]: 198.98
Ratio [6]: 54.37
Ratio [7]: 238.43
Ratio [8]: 67.05
Ratio [10]: 190.39
DC50 [11]: 200 nM
AUC(0-t) at 12 h [12]: 992 ng·h/mL
Activity [13]: > 50%
Activity [14]: 736 pg/mL
Activity [15]: 869 pg/mL
Ratio [16]: 403.09
Drug uptake [18]: Active
Ratio [19]: 1873.84
Ratio [21]: 410.02
Activity [22]: inactive
Ratio [25]: 484.4
Kp at 0.25 h [26]: 117
Ratio [27]: 638.59
Kp at 0.5 h [28]: 129
Ratio [29]: 472.95
Ratio [30]: 173.24
Ratio [31]: 629.99
Activity [32]: Active
Drug uptake [33]: Active
Ratio [34]: 274.38
SMILES: N#Cc1ccc(O[C@H]2CC[C@H](NC(=O)c3ccc(C4CCN(CC5CCCN(c6ccc(C(=O)NC7CCC(=O)NC7=O)cc6)C5)CC4)cc3)CC2)cc1Cl (some centres undefined)
Activity [2]: Not active; Compound Activity Dependent On Ubiquitin-Proteosome System
Activity (Mus musculus [5]): Active
Activity (Mus musculus [9]): Active
Activity (Mus musculus [17]): Active
Activity (Mus musculus [20]): Active
Activity (Mus musculus [23]): Active; Moderate Increase Observed Compared To Model Group
Activity (Mus musculus [24]): Active
